Laboratory results from patent publication US12139492B2 (Endotarget Inc., priority 2021, dated 2024).
Read-outs that look alike come from different tables or passages of the source.

What was measured:
Mino cells = assay: Antiproliferative effect, MTS cell viability assay, Mino cells; format: cell-based; conditions: Mino mantle cell lymphoma cells, read-out: IC50 (anti-proliferation) Mino cells
How it was run: (§1)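 MTS read-out, A490 of formazan from metabolically active cells; compound 0–10 μM (0, 0.001, 0.01, 0.1, 1, 10 μM), 72 h exposure.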

JeKo-1 cells = assay: Antiproliferative effect, MTS cell viability assay, JeKo-1 cells; format: cell-based; conditions: JeKo-1 mantle cell lymphoma cells, read-out: IC50 (anti-proliferation) JeKO-1 cells
How it was run: as §1

BTK = BTK (Homo sapiens, UniProt Q06187); assay: Degradation of BTK protein in Namalwa cells (Western blot; DC50, Dmax)
Sequence of BTK (Q06187 whole entry): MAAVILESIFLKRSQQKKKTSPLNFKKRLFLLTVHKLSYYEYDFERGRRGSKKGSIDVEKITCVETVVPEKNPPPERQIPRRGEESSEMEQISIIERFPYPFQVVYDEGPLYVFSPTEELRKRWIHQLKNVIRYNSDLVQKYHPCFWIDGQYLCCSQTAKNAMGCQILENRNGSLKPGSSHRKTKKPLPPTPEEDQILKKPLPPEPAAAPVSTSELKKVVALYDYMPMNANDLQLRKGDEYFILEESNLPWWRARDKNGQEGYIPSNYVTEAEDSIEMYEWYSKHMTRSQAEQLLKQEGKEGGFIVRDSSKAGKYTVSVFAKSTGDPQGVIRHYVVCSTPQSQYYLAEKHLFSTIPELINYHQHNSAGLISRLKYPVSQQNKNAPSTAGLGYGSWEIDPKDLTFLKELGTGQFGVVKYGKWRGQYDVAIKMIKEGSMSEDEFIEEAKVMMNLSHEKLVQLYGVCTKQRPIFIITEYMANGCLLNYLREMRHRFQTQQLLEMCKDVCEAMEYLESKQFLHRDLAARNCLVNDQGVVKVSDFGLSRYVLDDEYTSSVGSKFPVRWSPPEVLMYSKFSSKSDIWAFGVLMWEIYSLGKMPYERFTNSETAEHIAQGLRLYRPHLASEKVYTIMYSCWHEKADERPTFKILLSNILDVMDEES

[1] = BTK degradation, cell line not given
[2] = read-out: DC50 (BTK degradation), concentration giving 50% reduction of BTK expression level, cell line not given
[3] = read-out: Dmax (BTK degradation)

| Compound | Dmax (BTK) | DC50 (BTK; [1]) | DC50 (BTK; [2]) | Dmax (BTK; [3]) | IC50 (Mino cells; Homo sapiens, MINO) | IC50 (JeKo-1 cells; Homo sapiens) | IC50 (Mino cells) | IC50 (JeKo-1 cells) | Dmax (BTK degradation) (BTK; cell line not given) |
| --- | --- | --- | --- | --- | --- | --- | --- | --- | --- |
| NC(=O)c1c(-c2ccc(Oc3ccccc3)cc2)nn2c1NCCC2C1CCN(CC2CCN(C(=O)N3CCC(C4CCN(c5ccc6c(c5)CN(C5CCC(=O)NC5=O)C6=O)CC4)CC3)CC2)CC1 (stereo not shown) [Compound 366, 7-(1-((1-(1′-(2-(2,6-dioxopiperidin-3-yl)-1-oxoisoindolin-5-yl)-[4,4′-bipiperidine]-1-carbonyl)piperidin-4-yl)methyl)piperidin-4-yl)-2-(4-phenoxyphenyl)-4,5,6,7-tetrahydropyrazolo[1,5-a]pyrimidine-3-carboxamide] | > 90% | < 10 nM |  |  | < 1000 nM | < 1000 nM |  |  |  |
| NC(=O)c1c(-c2ccc(Oc3ccccc3)cc2)nn2c1NCCC2C1CCN(C(=O)N2CCN(CCN3CCC(c4ccc5c(c4)C(=O)N(C4CCC(=O)NC4=O)C5=O)CC3)CC2)CC1 (stereo not shown) [Compound 287] | > 75% | 10 to 50 nM |  |  | 1000 to 10000 nM | > 10000 nM |  |  |  |
| Nc1ncnc2c1c(-c1ccc(Oc3ccccc3)cc1)nn2C1CCN(CCN2CCC(N3CCN(c4ccc5c(c4)C(=O)N(C4CCC(=O)NC4=O)C5=O)CC3)C2)CC1 (single isomer, unassigned) [Compound 459b, 5-(4-(1-(2-(4-(4-amino-3-(4-phenoxyphenyl)-1H-pyrazolo[3,4-d]pyrimidin-1-yl)piperidin-1-yl)ethyl)pyrrolidin-3-yl)piperazin-1-yl)-2-(2,6-dioxopiperidin-3-yl)isoindoline-1,3-dione] |  |  | < 10 nM |  |  |  | < 1000 nM | < 1000 nM | A (A >90%) |
| Nc1ncnc2c1c(-c1ccc(Oc3ccccc3)cc1)nn2C1CCN(C2CCN(C(=O)N3CCC(CCN4CCC(c5ccc6c(c5)CN(C5CCC(=O)NC5=O)C6=O)CC4)CC3)CC2)CC1 (stereo not shown) [Compound 254, 3-(5-(1-(2-(1-(4-(4-amino-3-(4-phenoxyphenyl)-1H-pyrazolo[3,4-d]pyrimidin-1-yl)-[1,4′-bipiperidine]-1′-carbonyl)piperidin-4-yl)ethyl)piperidin-4-yl)-1-oxoisoindolin-2-yl)piperidine-2,6-dione] | > 90% | < 10 nM |  |  | 1000 to 10000 nM | 1000 to 10000 nM |  |  |  |
| NC(=O)c1c(-c2ccc(Oc3ccccc3)cc2)nn2c1NCC[C@H]2C1CCN(CC2CCN(CCN3CCC(c4ccc5c(c4)CN(C4CCC(=O)NC4=O)C5=O)CC3)CC2)CC1 (stereo partly drawn) [Compound 336, (7S)-7-(1-((1-(2-(4-(2-(2,6-dioxopiperidin-3-yl)-1-oxoisoindolin-5-yl)piperidin-1-yl)ethyl)piperidin-4-yl)methyl)piperidin-4-yl)-2-(4-phenoxyphenyl)-4,5,6,7-tetrahydropyrazolo[1,5-a]pyrimidine-3-carboxamide] | > 75% | 10 to 50 nM |  |  | 1000 to 10000 nM | 1000 to 10000 nM |  |  |  |
| Nc1ncnc2c1c(-c1ccc(Oc3ccccc3)cc1)nn2C1CCN([C@H]2CCN(CC3CCN(c4ccc5c(c4)C(=O)N(C4CCC(=O)NC4=O)C5=O)CC3)C2)CC1 (stereo partly drawn) [Compound 449a, 5-(4-(((S)-3-(4-(4-amino-3-(4-phenoxyphenyl)-1H-pyrazolo[3,4-d]pyrimidin-1-yl)piperidin-1-yl)pyrrolidin-1-yl)methyl)piperidin-1-yl)-2-(2,6-dioxopiperidin-3-yl)isoindoline-1,3-dione] |  |  | < 10 nM | > 90% | < 1000 nM | < 1000 nM |  |  |  |

The next lines start with results.

| Dmax (BTK) | DC50 (BTK; [1]) | DC50 (BTK; [2]) | Dmax (BTK; [3]) | Compound | IC50 (Mino cells; Homo sapiens, MINO) | IC50 (JeKo-1 cells; Homo sapiens) | IC50 (Mino cells) | IC50 (JeKo-1 cells) | Dmax (BTK degradation) (BTK; cell line not given) |
| --- | --- | --- | --- | --- | --- | --- | --- | --- | --- |
| > 90% | < 10 nM |  |  | NC(=O)c1c(-c2ccc(Oc3ccccc3)cc2)nn2c1NCCC2C1CCN(CC2CCN(C(=O)N3CCC(N4CCC(c5ccc6c(c5)CN(C5CCC(=O)NC5=O)C6=O)CC4)CC3)CC2)CC1 (stereo not shown) [Compound 368, 7-(1-((1-(4-(2-(2,6-dioxopiperidin-3-yl)-1-oxoisoindolin-5-yl)-[1,4′-bipiperidine]-1′-carbonyl)piperidin-4-yl)methyl)piperidin-4-yl)-2-(4-phenoxyphenyl)-4,5,6,7-tetrahydropyrazolo[1,5-a]pyrimidine-3-carboxamide] | < 1000 nM | 1000 to 10000 nM |  |  |  |
|  |  | 10 to 50 nM | > 90% | Nc1ncnc2c1c(-c1ccc(Oc3ccccc3)cc1)nn2C1CCN(C(=O)NCCN2CCN(c3ccc4c(c3)C(=O)N(C3CCC(=O)NC3=O)C4=O)CC2)CC1 (stereo not shown) [Compound 520, 4-(4-amino-3-(4-phenoxyphenyl)-1H-pyrazolo[3,4-d]pyrimidin-1-yl)-N-(2-(4-(2-(2,6-dioxopiperidin-3-yl)-1,3-dioxoisoindolin-5-yl)piperazin-1-yl)ethyl)piperidine-1-carboxamide] | < 1000 nM | < 1000 nM |  |  |  |
|  |  | < 10 nM | > 90% | Nc1ncnc2c1c(-c1ccc(Oc3ccccc3)cc1)nn2C1CCC(C(=O)NCCN2CCN(c3ccc4c(c3)C(=O)N(C3CCC(=O)NC3=O)C4=O)CC2)CC1 (stereo not shown) [Compound 522, 4-(4-amino-3-(4-phenoxyphenyl)-1H-pyrazolo[3,4-d]pyrimidin-1-yl)-N-(2-(4-(2-(2,6-dioxopiperidin-3-yl)-1,3-dioxoisoindolin-5-yl)piperazin-1-yl)ethyl)cyclohexane-1-carboxamide] | < 1000 nM | < 1000 nM |  |  |  |
| > 75% | 10 to 50 nM |  |  | Nc1ncnc2c1c(-c1ccc(Oc3ccccc3)cc1)nn2C1CCN(CC2CCN(CCCN3CCC(c4ccc5c(c4)CN(C4CCC(=O)NC4=O)C5=O)CC3)CC2)CC1 (stereo not shown) [Compound 210, 3-(5-(1-(3-(4-((4-(4-amino-3-(4-phenoxyphenyl)-1H-pyrazolo[3,4-d]pyrimidin-1-yl)piperidin-1-yl)methyl)piperidin-1-yl)propyl)piperidin-4-yl)-1-oxoisoindolin-2-yl)piperidine-2,6-dione] | 1000 to 10000 nM | 1000 to 10000 nM |  |  |  |
|  |  | 10 to 50 nM | > 75% | Nc1ncnc2c1c(-c1ccc(Oc3ccccc3)cc1)nn2C1CCN(C2CCN(CC3CCN(c4ccc5c(c4)CN(C4CCC(=O)NC4=O)C5=O)C3)C2)CC1 (stereo not shown) [Compound 452, 3-(5-(3-((3-(4-(4-amino-3-(4-phenoxyphenyl)-1H-pyrazolo[3,4-d]pyrimidin-1-yl)piperidin-1-yl)pyrrolidin-1-yl)methyl)pyrrolidin-1-yl)-1-oxoisoindolin-2-yl)piperidine-2,6-dione] | < 1000 nM | 1000 to 10000 nM |  |  |  |
| > 50% | > 50 nM |  |  | Nc1ncnc2c1c(-c1ccc(Oc3ccccc3)cc1)nn2C1CCN(C2CCN(C(=O)N3CCC(c4ccc5c(c4)C(=O)N(C4CCC(=O)NC4=O)C5=O)CC3)CC2)CC1 (stereo not shown) [Compound 227, 5-(1-(4-(4-amino-3-(4-phenoxyphenyl)-1H-pyrazolo[3,4-d]pyrimidin-1-yl)-[1,4′-bipiperidine]-1′-carbonyl)piperidin-4-yl)-2-(2,6-dioxopiperidin-3-yl)isoindoline-1,3-dione] | > 10000 nM | > 10000 nM |  |  |  |
| > 75% | 10 to 50 nM |  |  | Nc1ncnc2c1c(-c1ccc(Oc3ccccc3)cc1)nn2C1CCN(C2CCN(C(=O)N3CCN(CCN4CCC(c5ccc6c(c5)C(=O)N(C5CCC(=O)NC5=O)C6=O)CC4)CC3)CC2)CC1 (stereo not shown) [Compound 249, 5-(1-(2-(4-(4-(4-amino-3-(4-phenoxyphenyl)-1H-pyrazol[3,4-d]pyrimidin-1-yl)-[1,4′-bipiperidine]-1′-carbonyl)piperazin-1-yl)ethyl)piperidin-4-yl)-2-(2,6-dioxopiperidin-3-yl)isoindoline-1,3-dione] | < 1000 nM | 1000 to 10000 nM |  |  |  |
